{
  "source": "paper PMC6776382",
  "experiment": "Two-component Cys-Cys stapling by Pd-catalysed Tsuji-Trost S-allylation with bis(allylic carbonate) Ri ((Z)-but-2-ene-1,4-diyl) or Rj (2-methylenepropane-1,3-diyl), 1.2 eq; 2.4 eq Pd(dba)2, 2.4 eq BIPHEPHOS; bis-thioether formation",
  "conditions": "the molecule shown is the open-chain precursor, CH3CN/H2O 2:1, 1.0 mM, 40.0 °C, 3.0 h, scale: 1 = cyclic product formed with full conversion of the linear peptide",
  "data": [
    {"substance": "H-Ala-Gly-Cys-Lys-Asn-Phe-Phe-Trp-Lys-Thr-Phe-Thr-Ser-Cys-OH (Cys3/Cys14 free SH; one S carries CH2C(=CH2)CH2OCO2Me from Rj at closure; two monomer peaks plus approx. 10% 2+2 dimer)", "values": [
      {"measurement": "ring closure, product found", "setting": "41-membered ring", "result": 1}
    ]},
    {"substance": "H-Ala-Gly-Cys-Lys-Asn-Phe-Phe-Trp-Lys-Thr-Phe-Thr-Ser-Cys-OH (Cys3/Cys14 free SH; one S carries CH2CH=CHCH2OCO2Me from Ri at closure; single product peak)", "values": [
      {"measurement": "ring closure, product found", "setting": "42-membered ring", "result": 1}
    ]},
    {"substance": "H-Glu-Trp-Ala-Cys-Thr-Ala-Ala-Cys-Lys-Phe-Leu-Ala-Ala-His-Ala-OH (Cys4/Cys8 free SH; one S carries CH2C(=CH2)CH2OCO2Me from Rj at closure; single product peak)", "values": [
      {"measurement": "ring closure, product found", "setting": "20-membered ring", "result": 1}
    ]},
    {"substance": "H-Glu-Trp-Ala-Cys-Thr-Ala-Ala-Cys-Lys-Phe-Leu-Ala-Ala-His-Ala-OH (Cys4/Cys8 free SH; one S carries CH2CH=CHCH2OCO2Me from Ri at closure; two product peaks, presumably E/Z)", "values": [
      {"measurement": "ring closure, product found", "setting": "21-membered ring", "result": 1}
    ]},
    {"substance": "H-Glu-Trp-Ala-Cys-Thr-Ala-Cys-Ala-Lys-Phe-Leu-Ala-Ala-His-Ala-OH (Cys4/Cys7 free SH; one S carries CH2C(=CH2)CH2OCO2Me from Rj at closure; single product peak)", "values": [
      {"measurement": "ring closure, product found", "setting": "17-membered ring", "result": 1}
    ]},
    {"substance": "H-Glu-Trp-Ala-Cys-Thr-Ala-Cys-Ala-Lys-Phe-Leu-Ala-Ala-His-Ala-OH (Cys4/Cys7 free SH; one S carries CH2CH=CHCH2OCO2Me from Ri at closure; two product peaks, presumably E/Z)", "values": [
      {"measurement": "ring closure, product found", "setting": "18-membered ring", "result": 1}
    ]}
  ]
}
